Values quoted from earlier work, collected in the CATMoS acute toxicity set (Mansouri et al. 2021).
“And” between values parts separate entries of the source, which are not always exact repeats. Equal entries are not always repeated.

Experiment: rat acute oral toxicity
Conditions: in vivo
Text: […]The data set underlying the modeling effort for this project was initially compiled by NICEATM and U.S. EPA’s CCTE. Briefly, LD50 data were collected from rat acute oral systemic toxicity tests, including limit tests, ranges/confidence intervals, and discrete LD50 values. The full data set included 21,200 LD50 entries for 15,688 substances. […] Data were reviewed to ensure that LD50 values with obvious errors in the extracted data such as unit conversion errors (e.g., comma and decimal separator misplacements) were either fixed or removed. After this review, 16,209 LD50 values remained. Many of the chemicals represented had multiple LD50 entries, requiring that a single representative value per Chemical Abstracts Service Registry Number (CASRN) identifier be defined to facilitate modeling efforts. Based on ATWG feedback and to define the representative LD50 as a protective value while accounting for the distribution across multiple LD50s, the median of the lowest quartile was computed using only discrete LD50 values (omitting limit test data and range and confidence interval data). A detailed summary of the data compilation is available online on the NICEATM webpage dedicated to the collaborative modeling project (NTP 2020).
[…][…] For categorical designations, limit test and range/confidence interval LD50 data were integrated wherever possible. As such, the number of chemicals with end point values/calls varies across the modeling end points (Table 3) based on whether chemicals had representative LD50 values and/or other data. If a chemical had both, the representative value was used to determine categorical calls rather than limit test data. Some data were useable only for certain end points and categories depending on the thresholds. For example, ranges that spanned multiple hazard categories were considered only for the binary (very toxic/nontoxic) end points and omitted from rendering a determination for hazard category assignment.
[…]The final data set comprising 11,992 chemicals was split into training and evaluation sets […], respectively. This process was performed semirandomly by ordering chemicals based on the five end points (categorical and continuous LD50 values) and partitioning every fourth record into the evaluation set accordingly. This approach was taken to ensure an equivalent distribution of the LD50 values and the different hazard categories between the training and the evaluation sets without supervised sampling of the chemicals based on structures (Figure 1A). The sources of the chemical structures were also kept equivalent between the two sets, with chemical structures obtained from DSSTox, being the highest quality, representing over 75% of each set (Figure 1B).

| SMILES | LD50 |
| --- | --- |
| FC(F)(F)c1nc2c(I)cc(Cl)cc2[nH]1 | 24 mg/kg |
| C=C(Cl)C#N | 25 mg/kg |
| O=C(O)C1=CC(=CC=[N+]2C(C(=O)O)=Cc3cc(O)c(O)cc32)CC(C(=O)[O-])N1 (configuration not stated) | 3140 mg/kg |
| Cc1ccccc1C(=O)Nc1cccc(OC(C)C)c1 | 10000 mg/kg |
| OCC1(CO)CC=CCC1 | 1750 mg/kg |
| CCCN(CCC)c1c([N+](=O)[O-])cc(C(F)(F)F)c(N)c1[N+](=O)[O-] | 15400 mg/kg |
| Cn1c(CCCC(=O)O)nc2cc(N(CCCl)CCCl)ccc21 | 200 mg/kg |
| C/C=C\c1ccc(OCc2ccccc2)c(OC)c1 | 4900 mg/kg |
| O=S(=O)(O)c1cccc2c(/N=N/c3ccc(/N=N/c4ccc(Nc5ccccc5)c5c(S(=O)(=O)O)cccc45)c4ccccc34)cccc12 | 15000 mg/kg |
| CCNC(C)CN1CCc2c(c(=O)oc3ccccc23)C1 (configuration not stated) | 300 mg/kg |
| C=C(C)OC(C)=O | 3000 mg/kg |
| CCN(CC)CCC(CC=C(C)C)(C(N)=O)c1cccc2ccccc12 (configuration not stated) | 71 mg/kg |
| Cc1c(Cl)c(=O)oc2cc(OP(=O)(OCC(C)Cl)OCC(C)Cl)ccc12 (configuration not stated) | 686 mg/kg |
| O=C(O)c1cccnc1Nc1cccc(C(F)(F)F)c1 | 250 mg/kg |
| CCCCC(CC)C(=O)O[Si](C)(OC(=O)C(CC)CCCC)OC(=O)C(CC)CCCC (configuration not stated) | 2280 mg/kg |
| CN1C(=O)C2C=CC1c1ccccc12 (configuration not stated) | 806 mg/kg |
| N#CCCN(CCO)c1ccccc1 | 3210 mg/kg |
| CC1(C)C2CC=C(CCO)C1C2 (configuration not stated) | 890 mg/kg |
| CNC(=O)ON=C1SC(=NC(C)(C)C)SC1(C)C | 31.5 mg/kg |
| CSC(C)(C)C=NOC(=O)N(C)SN1CCOCC1 | 1.2 mg/kg |
| O=c1[nH]c2c(Cl)c(Cl)c(Cl)cc2o1 | 1000 mg/kg |

| SMILES | LD50 |
| --- | --- |
| S=C=Nc1ccc(Br)cc1 | 400 mg/kg |
| CC(C)CC(C)OC(=O)CC(C(=O)OC(C)CC(C)C)S(=O)(=O)O (configuration not stated) | 1750 mg/kg |
| CCOP(=S)(Oc1ccc([N+](=O)[O-])cc1)Oc1ccc([N+](=O)[O-])cc1 | 66.9 mg/kg |
| CCCCC(CC)CN(CCO)CC(CC)CCCC (configuration not stated) | 4920 mg/kg |
| CCN(CCO)c1ccc(N=O)c(C)c1 | 336 mg/kg |
| O=C(CCN1CCN2c3ccccc3CCC2C1)Cc1ccc(F)cc1 (configuration not stated) | 800 mg/kg |
| COc1cc(S(C)=O)ccc1-c1nc2ccncc2[nH]1 (configuration not stated) | 132 mg/kg |
| CCN(CC)CCOCc1ccc(C)cc1 | 531 mg/kg |
| CC[C@H]1C2C[C@H]3[C@@H]4N(C)c5ccccc5C45C[C@@H](C2[C@H]5O)N3[C@@H]1O (some centres not stated) | 290 mg/kg |
| CCOC(=O)C(=O)NP(=O)(OC)SC (configuration not stated) | 501 mg/kg |
| CCCCCCCCCCOc1c(OC)cc(C(N)=O)cc1OC | 1650 mg/kg |
| Cc1cc(Sc2cc(C)c(O)c(C(C)(C)C)c2)cc(C(C)(C)C)c1O | 6340 mg/kg |
| O=[N+]([O-])c1cc(Br)cc2[nH]c(C(F)(F)F)nc12 | 1.23 mg/kg |
| Nc1ccc(N=Nc2ccccc2)cc1 | 1250 mg/kg |
| COC(=O)CCC(Cl)C(C)=O (configuration not stated) | 2050 mg/kg |
| Cc1c(CC(=O)O)c2ccccc2n1C(=O)c1ccccc1 | 362 mg/kg |
| Cn1cc(C(=O)[C@@H]2CCc3[nH]cnc3C2)c2ccccc21 | 1260 mg/kg |
| CCO[Si](CS)(OCC)OCC | 2550 mg/kg |
| COC(=O)c1ccc(N=NN(C)C)cc1 | 52 mg/kg |
| CC(O)COC[C@H]1O[C@@H](O)[C@H](OCC(C)O)[C@@H](OCC(C)O)[C@@H]1O (some centres not stated) | 10200 mg/kg |
| O=C(OC1CC2CCC(C1)[N+]21CCCC1)C(O)(c1ccccc1)c1ccccc1 (configuration not stated) | 1500 mg/kg |

| SMILES | LD50 |
| --- | --- |
| Nc1cc(Cl)cc(C(=O)O)c1Cl | 3500 mg/kg |
| CCCCCCCCc1ccc(C(CBr)OCCCC)cc1 (configuration not stated) | 250 mg/kg |
| COc1ccc2c(c1)c1c3n2CCN(C)C3=NCC1 | 1400 mg/kg |
| CC1=NN(c2ccc(C)cc2)C(=O)C1 | 7450 mg/kg |
| COC(=O)[C@H]1[C@H]2C[C@@H]3c4[nH]c5cc(OC)ccc5c4CCN3C[C@H]2C[C@@H](OC(=O)C=Cc2cc(OC)c(OC)c(OC)c2)[C@@H]1OC | 1000 mg/kg |
| CC(C)(C)CC(C)(C)c1ccc(OCCOS(=O)(=O)O)cc1 | 27000 mg/kg |
| CC1CC(C)(C)CC(OOC(C)(C)C)(OOC(C)(C)C)C1 (configuration not stated) | 12900 mg/kg |
| CCOP(=S)(OC)Oc1ccc([N+](=O)[O-])cc1 (configuration not stated) | 2.85 mg/kg |
| C[C@H](CCC(=O)O)[C@H]1CC[C@H]2[C@@H]3C(=O)C[C@@H]4CC(=O)CC[C@]4(C)[C@H]3CC(=O)[C@]12C | 3760 mg/kg and 4000 mg/kg |
| CC(=O)CC(=O)OC(C)C | 16200 mg/kg |
| COC(=O)CCC(Br)C(C)=O (configuration not stated) | 600 mg/kg |
| c1ccc(-n2cnnc2)cc1 | 134 mg/kg |
| Cc1ccc(B2OCC3(CO2)COB(c2ccc(C)cc2)OC3)cc1 | 1130 mg/kg |
| ClC(Cl)(Cl)c1cccc(C(Cl)(Cl)Cl)c1 | 2920 mg/kg |
| O=C(O)c1c(O)c(O)cc2ccccc12 | 24500 mg/kg |
| CCOC(C1=NCC(O)CN1)c1ccccc1 (configuration not stated) | 1750 mg/kg |
| CCOC(=S)C=Cc1ccc(OC)c(OC)c1 | 980 mg/kg |
| CCCCCCCCc1ccc(-c2ccccc2)cc1 | 2400 mg/kg |
| CC1CN1 (configuration not stated) | 19 mg/kg |
| CC=C(C(=O)NC(N)=O)C(C)C | 9000 mg/kg |
